Data set [1] relates to endogenous PDF protein. The data set is classed as cell-based, Mycobacterium smegmatis.
Data set [2] concerns Mycobacterium smegmatis strain mc^2155. Kind of data set: Growth profile of M. smegmatis culture with antisense PS-ODNs (OD600 and colony forming units). Particulars: 10 μM PS-ODN, 24 h, 7H9 Middlebrook broth.
The test system of data set [3] is E. coli. Kind of data set: Growth of E. coli culture with antisense PS-ODN (colony forming units). It counts as cell-based, Escherichia coli. The following applies: 10 μM PS-ODN, Lauria-Bertani medium; colony forming units vs untreated. How it is done: Further, to ensure that PS-ODN1 permeabilized within the M. smegmatis cells, PS-ODN1 were conjugated with 3′Flourescein label and used for the treatment of mycobacterial culture (˜1×10^5 cells of M. smegmatis were incubated with 10 μM PS-ODNs in 3 ml 7H9 Middlebrook broth supplemented with 10% ADC and grown at 37° C./200 rpm for 24 hrs). […] Since PS-ODN1 was mycobacteria specific, in E. coli where this insertion sequence is absent, when culture was treated with 10 μM PS-ODN1 had no effect on its growth. (FIG. 7, right panel).

The text below walks through data of patent US8907076B2, “Mycobacterial peptide deformylase” (Council of Scientific and Industrial Research, priority 2006, dated 2014).

Consider “PS-ODN1: 5′ phosphothiorate modified antisense oligodeoxyribonucleotide spanning bases 219-249 of M. tuberculosis def (insertion region); probably SEQ ID NO: 14 (antisense CGGATTGATGACCACACCGCGTCGGCGGGCGGTCAT; DNA, backbone and methylation of C not given here; phosphorothioate modified at 5'; listed as Mycobacterium tuberculosis)”, for which the “level of expression of endogenous PDF protein compared to untreated control” value in data set [1] is “significant reduction”. Further, the “decrease in growth of M. smegmatis compared to the untreated culture” value in data set [2] is on record as “five-fold decrease”. In addition, the “effect on growth profile of E. coli” value in data set [3] is listed as “no effect”.
